Experimental data taken from US8673913B2, “SHP-2 phosphatase inhibitor” (Case Western Reserve University, priority 2009, dated 2014).

What was measured:
[1] = biological target: T1, SHP-2 PTP domain GST fusion protein (Homo sapiens, UniProt Q06124); experiment: fluorescence titration (quenching of SHP-2 fluorescence); type: binding; parameters: Purified SHP-2 PTP domain GST-fusion protein was diluted into 20 mM Tris-HCl; made in house; details: SHP-2 protein 3 μM, excitation 295 nm
T1 sequence (Q06124 247-517 limits assumed): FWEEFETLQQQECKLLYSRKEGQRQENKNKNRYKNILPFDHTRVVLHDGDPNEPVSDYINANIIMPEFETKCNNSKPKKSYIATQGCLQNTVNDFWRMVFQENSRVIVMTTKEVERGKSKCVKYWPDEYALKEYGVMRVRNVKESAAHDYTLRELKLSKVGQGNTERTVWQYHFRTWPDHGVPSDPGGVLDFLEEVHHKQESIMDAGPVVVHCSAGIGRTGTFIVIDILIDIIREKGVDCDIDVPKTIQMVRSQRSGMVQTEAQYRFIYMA
Procedure: For all experiments, Purified SHP-2 PTP domain GST-fusion protein was diluted into 20 mM Tris-HCl, pH 7.5. Fluorescence spectra were recorded with a Luminescence Spectrometer LS50 (Perkin-Elmer, Boston, Mass.). Titrations were performed by increasing the test compound concentration while maintaining the SHP-2 protein concentration at 3 μM. Contributions from background fluorescence of the inhibitors were accounted for by subtracting the fluorescence of the inhibitors alone from the of the protein-inhibitor solution. The excitation wavelength was 295 nm and fluorescence was monitored from 360 to 500 nm. All reported fluorescence intensities are relative values and are not corrected for wavelength variations in detector response.
To validate that the active compounds identified were binding directly to the SHP-2 protein, we determined whether the active compounds directly interacted with the SHP-2 PTP domain using fluorescence quenching and taking advantage of the four tryptophans in the PTP domain, with Trp248 located 15 Å from the putative pY+5 pocket and Trp423 located 8 Å from the phosphatase active site. […] Therefore, their binding to SHP-2 protein could not be determined using this measurement. Thus, the fluorescence quenching experiments indicate that at least four active compounds identified do directly bind to SHP-2, thereby leading to their biological activities.

[2] = biological target: T1, SHP-2 PTP domain GST fusion protein; experiment: in vitro protein tyrosine phosphatase assay, SHP-2 (Malachite Green); type: biochemical; parameters: SHP-2 PTP domain GST fusion protein purified in house was used as the enzyme; made in house; details: compound at 100 μM; read-out: inhibition of SHP-2 enzymatic activity
Text: Candidate compounds were screened using the in vitro protein tyrosine phosphatase (PTP) assay kit (Sigma, St. Lois, Mo.). SHP-2 PTP domain GST fusion protein purified in house was used as the enzyme and a phospho-peptide corresponding to the surrounding sequence of pTyr^1146 in the insulin receptor (Thr-Arg-Asp-Ile-Tyr[PO3H2]-Glu-Thr-Asp-Tyr-Tyr) were used as the substrate. The assay determines free phosphate generated by dephosphorylation of the PTP substrate using the Malachite Green reagent. Briefly, 0.5 μg of GST-SHP-2 PTP was incubated in 40 μL assay buffer (25 mM Tris-HCl, PH7.4, 50 mM NaCl, 5 mM DTT, and 2.5 mM EDTA) with test compounds at various concentrations or DMSO at room temperature for 30 min. The PTP substrate was then added to a final concentration of 0.2 mM. The system was incubated at 30° C. for 30 min. Finally, 50 μl of Malachite Green solution was added and OD620 was measured after 5 min. In the phosphatase assays for SHP-1, CD45, TC-PTP, PTP-MEG2 (PTPN9), and LAR (PTPRF), procedures were similar, with the exception that GST-SHP-1, GST-CD45 cytoplasmic domain, GST-TC-PTP, GST-PTP-MEG2 PTP domain, and GST-LAR PTP domain purchased from Biomol International, L.P. (Plymouth Meeting, Pa.) were used instead as the enzymes.
Candidate compounds identified by CADD were screened by the in vitro tyrosine phosphatase assay as described in the Experimental Section. The GST-SHP-2 PTP domain fusion protein was incubated with the compounds at room temperature for 30 min before the phospho-peptide substrate was added to the assay systems, allowing compounds to bind to target sites in SHP-2. Each test compound was dissolved in DMSO. Initial concentration of the test compounds was 100 μM. In the experimental assay, DMSO was included as the negative control and sodium orthovanadate (100 μM), a general non-specific tyrosine phosphatase inhibitor, was used as the positive control. From the 165 commercially available compounds tested, we identified 9 compounds that inhibit SHP-2 catalytic activity with various efficiencies (FIG. 3A). […] The inhibitory effects of the compounds were dose-dependent.

SMILES | quenching of SHP-2 fluorescence [1] | inhibition at 100 µM [2]
CCc1ccc(OCC(=O)Nc2ccc(S(N)(=O)=O)cc2)cc1 [#270] | did not show significant quenching | –
CSc1ccc(C2C(C#N)=C(N)Oc3[nH]nc(-c4ccccc4Cl)c32)cc1 (centres unmarked) [#284] | strong quenching | –
CNC(=S)NNC(=O)CSCCS(=O)(=O)c1ccccc1 [#234] | did not show significant quenching | –
O=C(CCCn1c(=O)c2cccn2c2cccnc21)NCc1ccccc1F [#212] | – | 45%
CNC(=S)NNC(=O)c1csc(-c2cccs2)n1 [#226] | – | 40%
